Read-outs that look alike come from different tables or passages of the source.
Assays:
Assay type in all cases: cell-based
[1] = tested on: ACHN; assay: NCI-60 one-dose SRB screening; conditions: Homo sapiens, Renal Cancer, 10 µM one dose, 48 h, read-out: growth percentage
[2] = tested on: CCRF-CEM; assay: NCI-60 one-dose SRB screening; conditions: Homo sapiens, Leukemia, 10 µM one dose, 48 h, read-out: growth percentage
[3] = tested on: DU-145; assay: NCI-60 one-dose SRB screening; conditions: Homo sapiens, DU-145, Prostate Cancer, 10 µM one dose, 48 h, read-out: growth percentage
[4] = tested on: EKVX; assay: NCI-60 one-dose SRB screening; conditions: Homo sapiens, Non-Small Cell Lung Cancer, 10 µM one dose, 48 h, read-out: growth percentage
[5] = tested on: HCT-15; assay: NCI-60 one-dose SRB screening; conditions: Homo sapiens, HCT-15, Colon Cancer, 10 µM one dose, 48 h, read-out: growth percentage
[6] = tested on: HL-60(TB); assay: NCI-60 one-dose SRB screening; conditions: Homo sapiens, Leukemia, 10 µM one dose, 48 h, read-out: growth percentage
[7] = tested on: HOP-92; assay: NCI-60 one-dose SRB screening; conditions: Homo sapiens, HOP-92, Non-Small Cell Lung Cancer, 10 µM one dose, 48 h, read-out: growth percentage
[8] = tested on: KM12; assay: NCI-60 one-dose SRB screening; conditions: Homo sapiens, KM12, Colon Cancer, 10 µM one dose, 48 h, read-out: growth percentage
[9] = tested on: LOX IMVI; assay: NCI-60 one-dose SRB screening; conditions: Homo sapiens, Melanoma, 10 µM one dose, 48 h, read-out: growth percentage
[10] = tested on: MDA-MB-468; assay: NCI-60 one-dose SRB screening; conditions: Homo sapiens, MDA-MB-468, Breast Cancer, 10 µM one dose, 48 h, read-out: growth percentage
[11] = tested on: NCI-H322M; assay: NCI-60 one-dose SRB screening; conditions: Homo sapiens, Non-Small Cell Lung Cancer, 10 µM one dose, 48 h, read-out: growth percentage
[12] = tested on: SK-MEL-28; assay: NCI-60 one-dose SRB screening; conditions: Homo sapiens, SK-MEL-28, Melanoma, 10 µM one dose, 48 h, read-out: growth percentage
[13] = tested on: SK-MEL-5; assay: NCI-60 one-dose SRB screening; conditions: Homo sapiens, SK-MEL-5, Melanoma, 10 µM one dose, 48 h, read-out: growth percentage
[14] = tested on: SK-OV-3; assay: NCI-60 one-dose SRB screening; conditions: Homo sapiens, SK-OV-3, Ovarian Cancer, 10 µM one dose, 48 h, read-out: growth percentage
[15] = tested on: SN12C; assay: NCI-60 one-dose SRB screening; conditions: Homo sapiens, Renal Cancer, 10 µM one dose, 48 h, read-out: growth percentage
[16] = tested on: NCI-59 human cancer cell lines; assay: NCI-60 one-dose SRB screening, full panel and subpanels; conditions: Homo sapiens; for inhibition at 10 µM: read-out: growth-inhibitory % activity, up to
Protocol: The structures of the synthesized compounds 6a–h, 12a–c, 11, 13a–c, and 14a–c were submitted to the National Cancer Institute’s Developmental Therapeutics Program (NCI-DTP), and all of them were selected for preliminary in vitro anticancer activity screening against NCI-59 human cancer cell lines at a concentration of 10 µM, using the sulforhodamine B (SRB) assay to determine the growth percentage and cell viability.
The in vitro NCI-60 cell line screening assay was conducted at the National Cancer Institute (NCI), Bethesda, USA against 59 cancer cell lines representing 9 types of cancers, as reported earlier. Briefly, the human cancer cell lines were grown in RPMI 1640 medium containing 5% fetal bovine serum and 2 mM L-glutamine and inoculated into 96-well microtiter plates in 100 μL (5000 to 40,000 cells/well). Then, the plates were incubated at 37 °C, 5% CO2, 95% air, and 100% relative humidity for 24 h. After that, two plates of each cell line were fixed in situ with TCA, to represent cell population at time zero (Tz). The tested compounds were dissolved in DMSO at 400-fold and added so that the final concentration became 10 μM. The plates were then incubated for an additional 48 h followed by the addition of cold TCA to terminate the assay in case of adherent cells. Then, the cells were fixed in situ by cold 50% (w/v) TCA (50 μL; final concentration, 10% TCA) and incubated for 1 h at 4 °C. After discarding the supernatant, the plates were washed 5 times with tap water and air dried. Sulforhodamine B (SRB) solution (100 μL) at 0.4% (w/v) in 1% HOAc was added to each well, and plates were incubated for 10 min. at rt. Then, washing with 1% acetic acid was conducted 5 times to remove the unbound dye followed by air drying. After that, 10 mM trizma base was added to solubilize the bound stain, and the absorbance was read on an automated plate reader at a wavelength of 515 nm. On the other hand, the methodology for suspension cells was the same except that 50 μL of 80% TCA (final concentration, 16% TCA) was gently added to terminate the assay by fixing settled cells at the bottom of the wells. Percentage growth inhibition (GI%) was calculated as follows:
Growth percentage=Ti (test growth in the presence of compound at 10 µM )−Tz (time zero)/C (control growth)−Tz (time zero)×100 for Ti ≥ Tz;
Growth percentage=Ti (test growth in the presence of compound at 10 µM )−Tz (time zero)/Tz (time zero)×100 for Ti < Tz.
where values of 100, 40, 0, −40, and −100 mean no GI, 60% GI, no net G, 40% lethality, and all cells are dead, respectively.
Data are expressed as a one-dose mean graph of growth percentages including the mean, delta, and range.

[17] = tested on: A2780CP; assay: MTT cell viability assay; conditions: Homo sapiens, A2780C/P, Ovarian, 48 h, ± SD of triplicates
Protocol: (§1) In addition, the morphological changes in 12b-treated cancer cell lines at concentrations of 6.25 and 12.50 µM are shown in Figure 6.
(§2) According to the procedures of Skehan et al. (with minor modifications), the cancer or normal cells were seeded in a 96-well plate (100 µL/well). After overnight incubation at 37 °C and 5% CO2, the cells were incubated with 50 µM of each tested compound or DMSO (0.5% v/v). After 48 h of incubation, MTT (3-(4,5-dimethylthiazoyl)-2,5-diphenyl-tetrazolium bromide) 5 mg/mL Phosphate-Buffered Saline (PBS) was added, and the plate was incubated for 4 h. After that, acidified sodium dodecyl sulfate (SDS) solution (10% SDS containing 0.01N HCl in 1× PBS) was used to solubilize formazan crystals. The absorbance was measured after 14 h of incubation at λ570–630 nm by a Biotek plate reader (Gen5™).

[18] = tested on: A2780; assay: MTT cell viability assay; conditions: Homo sapiens, Ovarian, 48 h, ± SD of triplicates
Protocol: as §1, §2

[19] = tested on: SKOV-3; assay: MTT cell viability assay; conditions: Homo sapiens, SK-OV-3, Ovarian, 48 h, ± SD of triplicates
Protocol: as §1, §2

## [O-][n+]1onc(-c2ccccc2)c1CNc1ccc(Nc2nc(C(F)(F)F)nc3c2cnn3-c2ccc(Br)cc2)cc1 [12b, 3-(((4-((1-(4-bromophenyl)-6-(trifluoromethyl)-1H-pyrazolo[3,4-d]pyrimidin-4-yl)amino)phenyl)amino)methyl)-4-phenyl-1,2,5-oxadiazole 2-oxide]
[1]
  activity at 10 µM: 56.9%
[2]
  activity at 10 µM: 48.5%
[3]
  activity at 10 µM: 70.8%
[4]
  activity at 10 µM: 65.4%
[5]
  activity at 10 µM: 38.1%
[6]
  activity at 10 µM: 79.8%
[7]
  activity at 10 µM: 68.4%
[8]
  activity at 10 µM: 41.2%
[9]
  activity at 10 µM: 27.9%
[10]
  activity at 10 µM: 72%
[11]
  activity at 10 µM: 74.1%
[12]
  activity at 10 µM: 89.2%
[13]
  activity at 10 µM: 86%
[14]
  activity at 10 µM: 88.8%
[15]
  activity at 10 µM: 58%
[16]; CNS cancer cell lines
  inhibition at 10 µM: ≤ 45%
[16]; breast cancer cells
  inhibition at 10 µM: ≤ 61%
[16]; colon cancer cell lines
  inhibition at 10 µM: ≤ 62%
[16]; leukemia cell lines
  inhibition at 10 µM: ≤ 77%
[16]; melanoma cell lines
  inhibition at 10 µM: ≤ 72%
[16]; non-small cell lung cancer cell lines
  inhibition at 10 µM: ≤ 64%
[16]; ovarian cancer cell lines
  inhibition at 10 µM: ≤ 40%
[16]; prostate cancer cell lines
  inhibition at 10 µM: ≤ 52%
[16]; renal cancer cell lines
  inhibition at 10 µM: ≤ 69%
[16]; mean over the full panel, 10 µM one dose, 48 h, SRB, read-out: growth percentage, Mean
  activity at 10 µM: 66.8%
[17]
  IC50: 11.6 ± 0.1 µM
[18]
  IC50: 15 ± 0.15 µM
[19]
  IC50: 18.6 ± 0.2 µM
